The conditions of series [1]: human.
Procedure: Potential human toxicity of 2,4,6-THBA can be related to its toxicity based on studies with Daphnia. Toxicity of various compounds in Daphnia (48 h immobilization test) correlated to toxicity in humans (determined as reference dose for human oral exposure, RfD) (Martins et al., 2007).
Series [2] deals with cyclin-dependent kinases CDK1, 2, 4, 6. To be noted: purified CDKs in vitro; cited from earlier work.
The test system of series [3] is Pseudokirchneriella subcapitata.
The test system is the same in series [4]. As to conditions: cited from earlier work.
Another series concerns HCT-116 human cells. As to conditions: cited from earlier work.
The test system of series [5] is Daphnia magna. As to conditions: cited from earlier work; for EC50 at 48 h: Daphnia magna mobility.
The test system of series [6] is Daphnia magna. The series is described as follows: Daphnia magna mobility assay. As to conditions: 48 h.
Procedure: Toxicity is determined using a Daphnia magna mobility assay as described (Kamaya et al., 2005). Neonates (<24 h old) from 2-3-week-old mothers are placed in a 50 ml glass beaker containing 40 ml of a test solution. A sample of solid form quercetin (10%)/PVP (90%) composition containing 2,4,6-trihydroxybenzoic acid is resuspended and introduced at increasing dilutions. All experiments for exposure and controls without chemicals are made in four replicates and performed at 21±0.3° C. under 16 h light:8 h dark photoperiod. Immobility is used as the endpoint for determining acute toxicity; the daphnids showing no movement within 15 s after gentle stirring are defined to be immobile. After 24 and 48 h, the number of immobile daphnids is recorded to determine the concentration able to achieve 50% immobilization and it is indicated as EC50.
The test system of series [7] is MDA-MB231 human breast cancer cells. As to the kind of experiment: Cell viability assay (CellTiter 96 AQueous One) in MDA-MB231. Type of series: cell-based. To be noted: MDA-MB-231, MDA-MB231, 72 h. The procedure: Toxicity of DB-DBA (2-(3,4-dihydroxybenzoyloxy)-4,6-dihydroxybenzoic acid) was assessed in 96-well plate (Thermo Fisher, Walthman, Mass.) on 1×10^3 MDA-MB231 human breast cancer cells/well. DB-DBA was diluted in to concentrations from 500 to 0 ug/ml. The plate was incubated at 37° C. for 72 h. Cell viability was measured in a CellTiter 96® AQueous One Solution Cell Proliferation Assay (Promega, Madison, Wis.), according to the manufacturer's protocol. The absorbance at 490 nm is determined spectrophotometrically and IC50 was calculated to be 75 microgram/ml.

The subject of series [8] is retinal pigmented epithelial cells (ARPE-19). To be noted: ARPE-19 normal cell line; cited from earlier work.
In series [9] the test system is human lymphoblastoid TK6 cells. To be noted: cited from earlier work.
Series [10] has as its system human lymphoblastoid cell line K562. To be noted: cited from earlier work.
Another series deals with mice. As to conditions: cited from earlier work.
A further series relates to LNCaP human cell line. As to conditions: 48 h, read-out: EC50, loss of viability; cited from earlier work.
For series [11], the system named is HeLa, MCF7, HepG2, A549, LNCaP human cell lines. To be noted: cited from earlier work.
The next series concerns OVCAR3 human cell line. As to conditions: OVCAR3, 48 h; read-out: EC50, loss of viability; cited from earlier work.
The conditions of series [12]: cited from earlier work.
A short description of series [13]: Storage stability: degradation products by liquid chromatography with UV detection. The class given is physicochemical. The procedure:
(§1) Methods to detect PCA are known in the art, such as by liquid chromatography with UV detection. For example, a solution containing PCA is subjected to liquid chromatography using gradient elution with the following conditions: stainless steel column with stationary phase end-capped octadecylsilyl silica for chromatography R; size (150×3.9) mm, particle size 5 micron. Mobile phase A: 0.1% phosphoric acid v/v; mobile phase B—methanol; column temperature: 25° C.; flow rate: 1 mL/min.; UV detection at 254 nm. Relative retention time is 1.00 for quercetin, and 0.34 for PCA (FIG. 2). Content of PCA relative to quercetin can be calculated by formula (in percentage): […]
as §1, with “detect 2,4,6-THBA” for “detect PCA”, “containing 2,4,6-THBR” for “containing PCA”, “for 2,4,6-trihydroxybenzoic acid” for “for PCA”, “of 2,4,6-trihydroxybenzoic acid” for “of PCA”
Methods to detect DB-DBA are known in the art, such as by liquid chromatography with UV detection. For example, a solution containing DB-DBA is subjected to liquid chromatography using gradient elution with the following conditions: stainless steel column with stationary phase end-capped octadecylsilyl silica for chromatography R; size (150×3.9) mm, particle size 5 microns. Mobile phase A: 0.1% phosphoric acid v/v; mobile phase B—methanol; column temperature: 25° C.; flow rate: 1 mL/min.; UV detection at 254 nm. Relative retention time is 1.00 for quercetin, and 0.77 for DB-DBA (FIG. 15). Content of DB-DBA relative to quercetin can be calculated by formula (in percentage):
For test solution content of one vial with 70 ml of 96% ethanol was transferred to a 100 ml volumetric flask, diluted to 100 ml with the same solvent and mixed. For reference solution a, 1.0 ml of test solution was placed in a 100 ml volumetric flask, diluted to 100 ml with 96% ethanol and mixed. For reference solution b, 10.0 mg working standard of quercetin for system suitability (containing isorhamnetin and kaempferol, PJSC SIC “Borshchahivskiy CPP”, Kiev, Ukraine) was dissolved in 30 ml of 96% ethanol, diluted to 50 ml with the same solvent and mixed. Chromatography was performed on a using a Dionex UltiMate 3000 HPLC system (Thermo Fisher Scientific, Inc., Waltham, Mass.) with DAD and MS detectors (3200 QTRAP System (AB Sciex LLC, Framingham, Mass.)) connected consecutively using gradient elution with the following conditions: • stainless steel column with stationary phase end-capped octadecylsilyl silica for chromatography; size (150×3.9) mm, particle size 5 microns • Mobile phase A: 1.0 mL of phosphoric acid diluted to 1000 mL with water for chromatography, mixed and degassed; • Mobile phase B: methanol gradient grade; • Column temperature: 25° C. • Flow rate: 1 mL/min.; • Detection at 254 nm; • injection volume: 10 microL.
Inject test solution and reference solution (a). Peaks of quercetin and kaempferol as references were determined by relative retention times of 1.00 and 1.11
Vials containing (group 1) a lyophilized quercetin (10%)/PVP (90%) composition in an air atmosphere and (group 2) vials containing a lyophilized quercetin (10%)/PVP (90%) composition in a nitrogen gas atmosphere were stored at room temperature. Samples were obtained for each group at the indicated time points (0, 3, 6, 9, 12, 18, 24, and 36 months) and assayed for content of protocatechuic acid by chromatography as described above. Data from 3 independent experiments are shown. […]

The conditions of series [14]: humans, cited from earlier work.
[15] abbreviates: 36 months storage at 20-25° C., air.

pEC50: −log10 of the molar value. Values after ≈ are worked out from the molar mass of the structure shown. Where two headings read alike, the source gives them in different places.

For the molecule `O=C(O)c1c(O)cc(O)cc1O` [2,4,6-THBA, 2,4,6-trihydroxybenzoic acid], in series [1], the “RfD of 2,4,6-THBA relative to benzoic acid” value is given as “more than 50 times”; the “RfD, estimated from Daphnia EC50” value is listed as 0.02 mg/kg/day; the “toxicity of 2,4,6-THBA relative to quercetin” value came to 700 times. In addition, the “inhibitory effect on cyclin-dependent kinases CDK1, 2, 4, 6” value in series [2] is reported as “strong inhibitory effect”. Also, the “toxicity relative to benzoic acid and its other derivatives” value in [3] was 70 times. For the same molecule, the “EC50, suppression of growth” value in series [4] was 0.546 µg/mL. For the same molecule, the “cytotoxicity compared to other salicylic acid metabolites” value in the series on HCT-116 human cells is recorded as “more cytotoxic”. In addition, in the series with Daphnia magna [5] (Daphna magna immobilization test), the “LC50 in 48 h” value was 1.7 µg/mL (≈ 9.99 µM). In addition, in the series on Daphnia magna [5], the “EC50 at 48 h” value was 1.7 µg/mL (≈ 9.99 µM). For the same molecule, the “toxicity relative to benzoic acid” value in the series on Daphnia magna [6] is listed as “about 500 times”.

Regarding `O=C(Oc1cc(O)cc(O)c1C(=O)O)c1ccc(O)c(O)c1` [DB-DBA, 2-(3,4-dihydroxybenzoyloxy)-4,6-dihydroxybenzoic acid], the IC50 in series [7] worked out at 75 µg/mL (≈ 245 µM).

Turning to `O=C(O)c1cc(O)c(O)c(OC(=O)c2cc(O)c(O)c(O)c2)c1` [DGA, digallic acid], the “IC50, cytotoxicity” value in [8] is 47 microgram/mil. The “IC50 by MTT assay” value in series [9] (Bhouri et al., 2012a) was 8.5 microgram/ml. Moreover, the “concentrations causing DNA fragmentation, caspase-3/8 activation and PARP cleavage” value in series [9] (TK6) is 2.5-10 microgram/ml. Also, the “concentrations causing DNA fragmentation” value in [10] was 200-800 microgram/ml.

With `O=C(O)c1ccc(O)c(O)c1` [PCA, 3,4-dihydroxybenzoic acid], the “hepatotoxicity (increase in ALT)” value in the series on mice (acute, 50 mg/kg intraperitoneally) is given as “the same effect”; in the series with mice (subchronic, 0.1% in drinking water for 60 days) it was “causes hepatotoxicity”. Further, the negative logarithm of the EC50 (pEC50) with LNCaP human cell line and in the series with OVCAR3 human cell line was 5.30 throughout. The “concentration causing apoptosis (DNA fragmentation, caspase 3 activation)” value in series [11] is 5 to 8 µM.

Turning to `O=C(O)c1ccccc1` [benzoic acid], the “EC50, suppression of growth” value in series [4] is 36 µg/mL. In addition, the “EC50 at 48 h” value in the series on Daphnia magna [5] is 860 µg/mL (≈ 7040 µM). Also, in series [12], the “RfD / toxicity in humans” value is listed as 1 mg/kg/day.

Turning to `O=c1c(O)c(-c2ccc(O)c(O)c2)oc2cc(O)cc(O)c12` [quercetin, 2-(3,4-dihydroxyphenyl)-3,5,7-trihydroxy-4H-chromen-4-one], the “decrease of 2,4,6-THBA concentration by air substitution with nitrogen gas” value in series [13] stood at 7 fold. The protocatechuic acid accumulation result in series [13] (3 months storage at 20-25° C., air) is “about 0.1 % (w/w) protocatechuic acid/quercetin”; in [13] (setting [15]), “about 0.9 % protocatechuic acid/quercetin”. In addition, the “2,4,6-THBA accumulation” value in series [13] (6 months storage at 20-25° C., air) is reported as “about 0.1 % (w/w) 2,4,6-trihydroxybenzoic acid/quercetin”; in series [13] (setting [15]) it was “about 0.5 % 2,4,6-trihydroxybenzoic acid/quercetin”. The protocatechuic acid formation entry in [13] (12 months storage, ambient conditions) is “above 0.4 % of quercetin content”. For the same molecule, the “2,4,6-THBA formation” value is listed as 0.33 % of quercetin content in [13] (24 months storage, ambient conditions, air) and 0.05% in series [13] (air substituted with nitrogen gas (FIG. 19)). Besides, the “2,4,6-THBA concentration relative to LC50 in 48 h Daphnia immobilization test (lower)” value in series [13] (Daphnia) is listed as “more than 3 times”. The “2,4,6-THBA concentration relative to LC50 in 48 h Daphnia immobilization test (higher)” value in series [13] (Daphnia, 24 months) is “about 2 times”. Besides, the “2,4,6-THBA concentration” value in [13] (air substituted with nitrogen gas) stood at 0.5 mg/L. Also, the “rate of 2,4,6-THBA accumulation” value in series [13] (room temperature, air) is given as ~0.15 % of quercetin (w/w) per 12 months. Besides, the “rate of DB-DBA accumulation” value in [13] (room temperature, air) is ~1.25 % of quercetin (w/w) per 12 months. In series [14] (after ingestion in foods or supplements), the elimination half-life was 1 to 2 h. Further, the bioavailability of quercetin in series [14] is 0-50%. Besides, the “RfD / toxicity in humans” value in series [12] is “more than 15 mg/kg/day”.

These data come from patent publication US11156623B2, “Methods of monitoring safety of quercetin compositions” (PUBLIC JOINT STOCK COMPANY “SCIENTIFIC INDUSTRIAL CENTRE …, priority 2018, dated 2021).
